Legend:
B. subtilis 168 [1] = assay: fitness (endpoint OD595 vs no drug) (fraction); higher = more growth
In short: (§1)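 Volumes were 30 µl per well, or 55 µl for S. pneumoniae, in 384-well plates inoculated at OD595 0.01. Media were TSB, LB Lennox or CY at 37 °C, and OD595 was read every 30 min for 14 h with first-reading background subtraction. Fitness is the ratio of optical density at stationary-phase entry to the robust mean of no-drug controls. That ratio is capped at 1.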

S. aureus Newman [2] = assay: as above; settings: one replicate
In short: as §1

B. subtilis 168 [3] = assay: Bliss interaction score (quartile over a dose matrix) (fitness difference); higher = more antagonism (negative = synergy)
In short: (§2)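 Fitness was derived from optical density at entry into stationary phase, divided by the robust mean of the no-drug wells on the same plate. That reading was taken as OD595, and the ratio was capped at 1. Single-drug fitness was inferred from the combination data. The Bliss score, observed fitness minus the expected product of single-drug fitness, was summarised as quartiles over technical, biological and donor/recipient replicates.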

S. aureus DSM 20231 = assay: as above
In short: as §2

S. aureus Newman [4] = assay: as above
In short: as §2

S. pneumoniae D39V = assay: as above
In short: as §2
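Wherever Bliss interaction score (quartile over a dose matrix) is given: first quartile when negative (synergy) and third quartile when positive (antagonism).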

CO/N=C(\C(=O)N[C@@H]1C(=O)N2C(C(=O)O)=C(COC(N)=O)CS[C@H]12)c1ccco1 [Cefuroxime] + COc1c(N2C[C@@H]3CCCN[C@@H]3C2)c(F)cc2c(=O)c(C(=O)O)cn(C3CC3)c12 [Moxifloxacin]
fitness, B. subtilis 168 [1], one replicate
Settings | first compound 0.04875 µg/mL | first compound 0.0975 µg/mL | first compound 0.195 µg/mL | first compound 1.562 µg/mL | first compound 3.125 µg/mL | first compound 6.25 µg/mL
partner 0.0312 µg/mL | 0.0482 | 0.0451 | – | – | – | –
partner 0.0625 µg/mL | 0.0309 | 0.0348 | – | – | – | –
partner 0.125 µg/mL | 0.0185 | 0.0123 | – | – | – | –
partner 2 µg/mL | 0.0399 | 0.0244 | 0.0298 | 0.0359 | 0.0258 | 0.0141
partner 4 µg/mL | 0.0357 | 0.0206 | 0.0189 | 0.0269 | 0.0126 | 0.0118
partner 8 µg/mL | 0.0177 | 0.0063 | 0.0088 | 0.02 | 0.0184 | 0.011

fitness
Settings | first compound 0.04875 µg/mL | first compound 0.0975 µg/mL | first compound 0.195 µg/mL | first compound 0.39 µg/mL | first compound 0.78 µg/mL
B. subtilis 168 [1], partner 0.0312 µg/mL | – | – | 0.0354 | 0.0276 | 0.0247
B. subtilis 168 [1], partner 0.0625 µg/mL | – | – | 0.0331 | 0.0172 | 0.0291
B. subtilis 168 [1], partner 0.125 µg/mL | – | – | 0.0376 | 0.0259 | 0.0192
S. aureus Newman [2], partner 0.0075 µg/mL | 0.631 | 0.593 | 0.595 | – | –
S. aureus Newman [2], partner 0.015 µg/mL | 0.439 | 0.4 | 0.445 | – | –
S. aureus Newman [2], partner 0.03 µg/mL | 0.034 | 0.0177 | 0.0236 | – | –

Settings | Bliss interaction score
B. subtilis 168 [3] | 0.0178
S. aureus DSM 20231 | -0.0502
S. aureus Newman [4] | -0.14
S. pneumoniae D39V | 0.0473

CO/N=C(\C(=O)N[C@@H]1C(=O)N2C(C(=O)O)=C(COC(N)=O)CS[C@H]12)c1ccco1 [Cefuroxime] + C[C@@H]1O[C@@H]1P(=O)(O)O [Fosfomycin]
fitness
Settings | first compound 0.04875 µg/mL | first compound 0.0975 µg/mL | first compound 0.195 µg/mL
B. subtilis 168 [1], partner 1.562 µg/mL | 0.464 | 0.419 | 0.39
B. subtilis 168 [1], partner 3.124 µg/mL | 0.363 | 0.337 | 0.28
B. subtilis 168 [1], partner 6.248 µg/mL | 0.293 | 0.245 | 0.194
S. aureus Newman [2], partner 0.781 µg/mL | 0.803 | 0.7 | 0.632
S. aureus Newman [2], partner 1.562 µg/mL | 0.56 | 0.508 | 0.438
S. aureus Newman [2], partner 3.124 µg/mL | 0.12 | 0.0863 | 0.0573

fitness, B. subtilis 168 [1], one replicate
Settings | first compound 0.39 µg/mL | first compound 0.78 µg/mL | first compound 1.562 µg/mL | first compound 3.125 µg/mL | first compound 6.25 µg/mL
partner 1.562 µg/mL | 0.344 | 0.301 | 0.179 | 0.136 | 0.113
partner 3.124 µg/mL | 0.331 | 0.235 | 0.17 | 0.122 | 0.133
partner 6.248 µg/mL | 0.189 | 0.131 | 0.0925 | 0.0543 | 0.0496

Settings | Bliss interaction score
B. subtilis 168 [3] | -0.0716
S. aureus DSM 20231 | 0.0278
S. aureus Newman [4] | 0.0983
S. pneumoniae D39V | 0.0411

CO/N=C(\C(=O)N[C@@H]1C(=O)N2C(C(=O)O)=C(COC(N)=O)CS[C@H]12)c1ccco1 [Cefuroxime] + CC1=C\[C@@H](O)CC(=O)Cc2nc(co2)C(=O)N2CCC=C2C(=O)O[C@H](C(C)C)[C@H](C)/C=C/C(=O)NC\C=C\1 [Virginiamycin M1]
fitness
Settings | partner 0.0625 µg/mL | partner 0.125 µg/mL | partner 0.25 µg/mL
B. subtilis 168 [1], first compound 0.04875 µg/mL | – | 0.76 | –
B. subtilis 168 [1], first compound 0.195 µg/mL | 0.558 | 0.555 | 0.538
S. aureus Newman [2], first compound 0.04875 µg/mL | 0.927 | 0.952 | 0.943
S. aureus Newman [2], first compound 0.0975 µg/mL | 0.963 | 0.992 | 0.965
S. aureus Newman [2], first compound 0.195 µg/mL | 0.89 | 0.944 | 0.893

fitness, B. subtilis 168 [1], one replicate
Settings | first compound 1.562 µg/mL | first compound 3.125 µg/mL | first compound 6.25 µg/mL
partner 0.0625 µg/mL | 0.334 | 0.259 | 0.239
partner 0.125 µg/mL | 0.325 | 0.26 | 0.208
partner 0.25 µg/mL | 0.309 | 0.217 | 0.182

Settings | Bliss interaction score
B. subtilis 168 [3] | 0.0564
S. aureus DSM 20231 | 0.103
S. aureus Newman [4] | -0.0495
S. pneumoniae D39V | -0.0415

CO/N=C(\C(=O)N[C@@H]1C(=O)N2C(C(=O)O)=C(COC(N)=O)CS[C@H]12)c1ccco1 [Cefuroxime] + C[n+]1ccc(-c2cc[n+](C)cc2)cc1 [Paraquat]
fitness
Settings | first compound 0.04875 µg/mL | first compound 0.0975 µg/mL | first compound 0.195 µg/mL
B. subtilis 168 [1], partner 1.25 µg/mL | 0.705 | 0.633 | 0.539
B. subtilis 168 [1], partner 2.5 µg/mL | 0.682 | 0.625 | 0.522
B. subtilis 168 [1], partner 5 µg/mL | 0.632 | 0.584 | 0.366
S. aureus Newman [2], partner 1.25 µg/mL | 0.955 | 0.906 | 0.963
S. aureus Newman [2], partner 2.5 µg/mL | 0.88 | 0.924 | 0.937
S. aureus Newman [2], partner 5 µg/mL | 0.993 | 0.907 | 0.939

fitness, B. subtilis 168 [1], one replicate
Settings | first compound 1.562 µg/mL | first compound 3.125 µg/mL | first compound 6.25 µg/mL
partner 1.25 µg/mL | 0.224 | 0.144 | 0.0805
partner 2.5 µg/mL | 0.179 | 0.131 | 0.0628
partner 5 µg/mL | 0.147 | 0.0619 | 0.0182

Settings | Bliss interaction score
B. subtilis 168 [3] | -0.0801
S. aureus DSM 20231 | 0.0764
S. aureus Newman [4] | -0.0456
S. pneumoniae D39V | -0.0322

CO/N=C(\C(=O)N[C@@H]1C(=O)N2C(C(=O)O)=C(COC(N)=O)CS[C@H]12)c1ccco1 [Cefuroxime] + CN[C@@H]1[C@H](O[C@H]2[C@H](O[C@H]3[C@H](O)[C@@H](O)[C@H](N=C(N)N)[C@@H](O)[C@@H]3N=C(N)N)O[C@@H](C)[C@]2(O)C=O)O[C@@H](CO)[C@H](O)[C@H]1O [Streptomycin]
fitness
Settings | first compound 0.04875 µg/mL | first compound 0.0975 µg/mL | first compound 0.195 µg/mL | first compound 1.562 µg/mL | first compound 3.125 µg/mL | first compound 6.25 µg/mL
B. subtilis 168 [1], partner 2 µg/mL | 0.722 | 0.664 | 0.6 | 0.132 | 0.088 | 0.0549
B. subtilis 168 [1], partner 4 µg/mL | – | – | 0.164 | 0.0266 | 0.015 | 0.0149
B. subtilis 168 [1], partner 8 µg/mL | 0.0543 | 0.0254 | 0.0361 | 0.032 | 0.0257 | 0.0148
S. aureus Newman [2], partner 2 µg/mL | 0.826 | 0.746 | 0.814 | – | – | –
S. aureus Newman [2], partner 4 µg/mL | 0.944 | ≥ 1 | 0.781 | – | – | –
S. aureus Newman [2], partner 8 µg/mL | 0.994 | 0.963 | 0.81 | – | – | –

Settings | Bliss interaction score
B. subtilis 168 [3] | -0.123
S. aureus DSM 20231 | -0.357
S. aureus Newman [4] | 0.335
S. pneumoniae D39V | 0.0384

CO/N=C(\C(=O)N[C@@H]1C(=O)N2C(C(=O)O)=C(COC(N)=O)CS[C@H]12)c1ccco1 [Cefuroxime] + Cc1ncc([N+](=O)[O-])n1CCO [Metronidazole]
fitness
Settings | partner 0.625 µg/mL | partner 1.25 µg/mL | partner 2.5 µg/mL
B. subtilis 168 [1], first compound 0.04875 µg/mL | 0.741 | 0.767 | 0.715
B. subtilis 168 [1], first compound 0.195 µg/mL | 0.547 | 0.515 | 0.497
S. aureus Newman [2], first compound 0.04875 µg/mL | ≥ 1 | 0.923 | 0.993
S. aureus Newman [2], first compound 0.0975 µg/mL | 0.897 | 0.939 | 0.918
S. aureus Newman [2], first compound 0.195 µg/mL | 0.943 | 0.978 | 0.921

fitness, B. subtilis 168 [1], one replicate
Settings | first compound 1.562 µg/mL | first compound 3.125 µg/mL | first compound 6.25 µg/mL
partner 0.625 µg/mL | 0.428 | 0.372 | 0.251
partner 1.25 µg/mL | 0.376 | 0.268 | 0.242
partner 2.5 µg/mL | 0.287 | 0.219 | 0.15

Settings | Bliss interaction score
B. subtilis 168 [3] | 0.0643
S. aureus DSM 20231 | 0.132
S. aureus Newman [4] | -0.0487
S. pneumoniae D39V | -0.0335

— the supplement of paper PMC10627819
